Measurements: ChEMBL document CHEMBL1201862, “PubChem BioAssay data set” (2004)
Calls of active or inactive are those of the source.

Key:
[1] = molecular target: 14-3-3 protein gamma (Homo sapiens, UniProt P61981); assay: modulators of 14-3-3 gamma client binding – dose response (AID 711); type: functional
[2] = molecular target: T1, Calpain-2 catalytic subunit (Sus scrofa, UniProt P43367); assay: m-calpain protease blockers, concentration series – biochemical, fluorogenic peptide substrate, dose response (AID 1420); type: functional
T1 sequence (P43367 whole entry): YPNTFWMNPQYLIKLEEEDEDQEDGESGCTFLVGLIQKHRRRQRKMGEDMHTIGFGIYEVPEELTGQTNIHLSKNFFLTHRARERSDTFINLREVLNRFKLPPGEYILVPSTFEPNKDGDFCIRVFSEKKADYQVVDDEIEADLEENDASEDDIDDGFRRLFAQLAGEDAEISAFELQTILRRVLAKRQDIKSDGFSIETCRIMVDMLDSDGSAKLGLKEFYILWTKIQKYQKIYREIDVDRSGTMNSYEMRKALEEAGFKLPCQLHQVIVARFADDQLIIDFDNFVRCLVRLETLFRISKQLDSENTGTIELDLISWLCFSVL

[3] = molecular target: Cytochrome P450 2C19 (Homo sapiens, UniProt P33261); assay: qHTS Assay for Inhibitors and Substrates of Cytochrome P450 2C19. [Related pubchem assays: 410 ]; type: ADME; settings: read-out: Potency
Cytochrome P450 2C19, sequence (P33261 whole entry): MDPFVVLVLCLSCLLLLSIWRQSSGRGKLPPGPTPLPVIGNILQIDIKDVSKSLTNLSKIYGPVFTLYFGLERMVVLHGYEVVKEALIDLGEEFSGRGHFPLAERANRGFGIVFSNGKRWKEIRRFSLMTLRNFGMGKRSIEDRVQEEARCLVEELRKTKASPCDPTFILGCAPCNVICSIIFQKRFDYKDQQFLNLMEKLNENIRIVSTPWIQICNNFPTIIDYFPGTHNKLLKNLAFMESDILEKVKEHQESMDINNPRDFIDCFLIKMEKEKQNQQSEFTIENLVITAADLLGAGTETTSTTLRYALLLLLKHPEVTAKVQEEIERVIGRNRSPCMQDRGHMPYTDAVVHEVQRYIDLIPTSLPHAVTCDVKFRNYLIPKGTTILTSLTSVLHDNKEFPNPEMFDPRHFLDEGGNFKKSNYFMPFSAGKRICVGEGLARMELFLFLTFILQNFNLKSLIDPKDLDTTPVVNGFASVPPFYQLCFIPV

[4] = molecular target: NADPH oxidase 1 (Homo sapiens, UniProt Q9Y5S8); type: functional, cell-based;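 note: Cell-based assay with luminescence read-out, IC50 derived from inhibitor dose-response curves; intracellular ROS from endogenous NOX1 in intact HT29 colon cancer cells; potency of inhibitors that lower the ROS luminescence signal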
NADPH oxidase 1, sequence (Q9Y5S8 whole entry): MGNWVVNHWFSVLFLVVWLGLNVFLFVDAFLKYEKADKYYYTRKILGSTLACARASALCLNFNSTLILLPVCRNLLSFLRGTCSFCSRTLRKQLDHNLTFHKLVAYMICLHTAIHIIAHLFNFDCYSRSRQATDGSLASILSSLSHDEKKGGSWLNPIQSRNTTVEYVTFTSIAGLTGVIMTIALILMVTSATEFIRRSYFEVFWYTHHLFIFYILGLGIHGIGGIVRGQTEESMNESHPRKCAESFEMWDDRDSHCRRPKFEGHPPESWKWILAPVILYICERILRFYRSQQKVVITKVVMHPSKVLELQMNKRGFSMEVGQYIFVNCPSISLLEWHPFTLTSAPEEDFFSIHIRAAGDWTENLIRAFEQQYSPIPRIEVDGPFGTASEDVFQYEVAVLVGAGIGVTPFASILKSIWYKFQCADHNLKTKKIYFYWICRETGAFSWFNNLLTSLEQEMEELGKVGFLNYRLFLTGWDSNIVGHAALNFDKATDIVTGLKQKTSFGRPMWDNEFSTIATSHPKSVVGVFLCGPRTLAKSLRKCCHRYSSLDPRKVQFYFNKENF

[5] = Trypanosoma cruzi growth suppression in host cells – NIH3T3 host cells, beta-gal luminescence, confirmation (AID 2044); type: functional, cell-based;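 note: intracellular parasites grown in NIH/3T3 mouse fibroblasts as host cells; luminescent beta-galactosidase reporter signal from transgenic T. cruzi replicating inside host cells; inhibitors lower the luminescence signal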
[6] = NIH3T3 cell viability loss – ATP luminescence, mouse fibroblasts, counter-screen, dose response (AID 2010); type: functional, cell-based;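 note: cells exposed to compound for about 90 hours before reading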
[7] = test system: INS1; assay: INS-1E survival protection against cytokine death – cell-based, luminescence, retest, dose response (AID 449756); type: functional; settings: Rattus norvegicus;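 note: cell death triggered by IL-1 beta plus TNF-alpha plus IFN-gamma mixture; protective hits raise ATP signal compared with cytokine alone wells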
[8] = molecular target: Melanocortin receptor 4 (Homo sapiens, UniProt P32245); type: functional, cell-based;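 note: Cell-based assay with luminescence read-out, confirmatory dose-response testing for agonist activity of biased ligands at MC4R; human U2OS cells with tagged receptor and beta-arrestin; potency of agonists that increase receptor coupling to beta-arrestin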
Melanocortin receptor 4, sequence (P32245 whole entry): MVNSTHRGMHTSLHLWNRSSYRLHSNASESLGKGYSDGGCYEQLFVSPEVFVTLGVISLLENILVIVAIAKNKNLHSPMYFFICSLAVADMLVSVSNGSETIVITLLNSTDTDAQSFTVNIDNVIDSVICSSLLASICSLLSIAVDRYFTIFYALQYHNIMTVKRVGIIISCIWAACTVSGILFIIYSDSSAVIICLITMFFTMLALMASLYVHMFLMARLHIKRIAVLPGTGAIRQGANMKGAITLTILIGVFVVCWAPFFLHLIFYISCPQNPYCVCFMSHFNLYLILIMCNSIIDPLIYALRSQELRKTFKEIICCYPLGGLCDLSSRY

[9] = cells
[10] = test system: Vero; assay: mammalian cell viability reduction – secondary assay, cytotoxicity control for West Nile virus antiviral project, dose response (AID 1650); type: functional; settings: Chlorocebus sabaeus
[11] = Luminescence Cell-Based Dose Retest to Confirm Inhibitors of Cancer Stem Cells. [Related pubchem assays (depositor defined):AID2717, AID2721]; type: functional; settings: Homo sapiens
[12] = molecular target: Induced myeloid leukemia cell differentiation protein Mcl-1 (Homo sapiens, UniProt Q07820); assay: blockers of MCL1 binding to BIM peptide – biochemical, fluorescence polarization, BIM-BH3 peptide, 1536-well, dose response (AID 2217)
Induced myeloid leukemia cell differentiation protein Mcl-1, sequence (Q07820 whole entry): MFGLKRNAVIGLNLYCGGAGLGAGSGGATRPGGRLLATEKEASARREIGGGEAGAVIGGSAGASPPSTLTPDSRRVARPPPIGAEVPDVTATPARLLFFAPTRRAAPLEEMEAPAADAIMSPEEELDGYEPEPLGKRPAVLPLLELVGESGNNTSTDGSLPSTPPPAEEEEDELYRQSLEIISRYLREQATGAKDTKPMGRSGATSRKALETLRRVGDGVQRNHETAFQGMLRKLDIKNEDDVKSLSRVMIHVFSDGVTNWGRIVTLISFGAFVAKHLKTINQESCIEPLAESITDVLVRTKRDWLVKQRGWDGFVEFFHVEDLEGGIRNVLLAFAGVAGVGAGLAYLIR

[13] = molecular target: Bcl-2-like protein 1 (Homo sapiens, UniProt Q07817); assay: blockers of BCLXL peptide binding – biochemical, fluorescence polarization, 1536-well, selectivity assay for MCL1 inhibitor project, dose response (AID 2218)
Bcl-2-like protein 1, sequence (Q07817 whole entry): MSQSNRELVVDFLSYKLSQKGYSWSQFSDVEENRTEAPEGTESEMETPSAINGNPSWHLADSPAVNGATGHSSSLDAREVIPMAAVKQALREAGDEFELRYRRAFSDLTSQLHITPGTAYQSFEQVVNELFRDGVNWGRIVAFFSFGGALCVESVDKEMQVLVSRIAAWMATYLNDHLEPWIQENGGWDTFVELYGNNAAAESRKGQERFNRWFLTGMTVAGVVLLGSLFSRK

[14] = Luminescence Cell-Based Dose Confirmation HTS to Identify Activators of 5'UTR Stem-Loop Driven Alpha-Synuclein mRNA Translation in H4 Neuroglioblastoma Cells. [Related pubchem assays: 1829 (Project Summary), 1814 (Primary HTS)]; type: functional
[15] = Luminescence Cell-Based Dose Response HTS to Identify Activators of Luciferase Translation or Activity in H4 […] Cells. [Related pubchem assays: 1829 (Project Summary), 1814 (Primary HTS)]; type: functional
[16] = test system: H4; assay: Luminescence Cell-Based Dose Response HTS to Identify Activators of 5'UTR Stem-Loop Driven Prion Protein mRNA Translation in H4 Neuroglioblastoma Cells. [Related pubchem assays: 1829 (Project Summary), 1814 (Primary HTS)]; type: functional; settings: Homo sapiens
[17] = molecular target: Large T antigen (Simian virus 40, UniProt P03070); type: functional, Betapolyomavirus macacae;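 note: Confirmatory-stage PubChem screen for compounds that inhibit SV40 T antigen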
Large T antigen, sequence (P03070 whole entry): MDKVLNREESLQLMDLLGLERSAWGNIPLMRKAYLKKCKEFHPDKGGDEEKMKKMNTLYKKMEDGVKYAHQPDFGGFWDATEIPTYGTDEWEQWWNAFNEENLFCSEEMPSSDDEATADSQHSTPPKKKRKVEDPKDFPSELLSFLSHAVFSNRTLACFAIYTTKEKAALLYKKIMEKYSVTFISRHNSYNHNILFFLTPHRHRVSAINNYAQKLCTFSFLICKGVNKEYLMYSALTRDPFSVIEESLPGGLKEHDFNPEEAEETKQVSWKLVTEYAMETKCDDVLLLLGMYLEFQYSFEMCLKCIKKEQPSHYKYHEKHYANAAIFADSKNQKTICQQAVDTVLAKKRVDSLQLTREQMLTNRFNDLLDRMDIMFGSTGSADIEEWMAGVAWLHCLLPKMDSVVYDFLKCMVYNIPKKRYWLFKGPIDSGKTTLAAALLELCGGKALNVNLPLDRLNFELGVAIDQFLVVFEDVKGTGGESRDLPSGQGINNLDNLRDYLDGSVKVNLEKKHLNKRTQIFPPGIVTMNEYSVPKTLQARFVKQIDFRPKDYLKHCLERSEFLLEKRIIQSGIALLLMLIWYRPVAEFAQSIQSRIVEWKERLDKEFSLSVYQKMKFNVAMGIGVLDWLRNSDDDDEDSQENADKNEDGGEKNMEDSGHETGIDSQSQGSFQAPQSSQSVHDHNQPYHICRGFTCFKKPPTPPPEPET

[18] = molecular target: Estrogen receptor beta (Homo sapiens, UniProt Q92731); assay: blockers of SRC-3 recruitment to ERβ – biochemical, ELISA, streptavidin-HRP readout, orthogonal assay, confirmation (AID 1060)
Estrogen receptor beta, sequence (Q92731 whole entry): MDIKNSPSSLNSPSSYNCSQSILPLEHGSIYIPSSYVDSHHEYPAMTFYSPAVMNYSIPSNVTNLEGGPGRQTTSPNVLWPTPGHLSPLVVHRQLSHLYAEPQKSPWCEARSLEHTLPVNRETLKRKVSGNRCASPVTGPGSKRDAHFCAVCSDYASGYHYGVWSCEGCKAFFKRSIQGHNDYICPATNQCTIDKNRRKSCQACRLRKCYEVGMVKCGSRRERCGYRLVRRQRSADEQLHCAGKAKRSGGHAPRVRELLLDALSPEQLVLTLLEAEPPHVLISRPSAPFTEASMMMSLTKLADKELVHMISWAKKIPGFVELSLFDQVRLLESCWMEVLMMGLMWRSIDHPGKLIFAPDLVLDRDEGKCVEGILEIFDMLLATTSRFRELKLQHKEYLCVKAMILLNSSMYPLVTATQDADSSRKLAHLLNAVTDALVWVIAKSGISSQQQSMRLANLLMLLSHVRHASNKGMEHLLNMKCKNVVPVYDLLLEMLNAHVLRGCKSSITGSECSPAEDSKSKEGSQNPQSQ

[19] = molecular target: Cytochrome P450 3A4 (Homo sapiens, UniProt P08684);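 note: CYP3A4 tested as one member of a cytochrome P450 panel screen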
[20] = molecular target: Aryl hydrocarbon receptor (Homo sapiens, UniProt P35869); assay: Luminescence-based cell-based high throughput dose response assay for activators of the Aryl Hydrocarbon Receptor (AHR). [Related pubchem assays: 2796 (Primary screen (AHR activators in singlicate)), 2845 (Confirmation screen (AHR activators in triplicate)), 434939 (Counterscreen (PXR activators in triplicate)), 2804 (Summary (AHR activators))]; type: ADME
Aryl hydrocarbon receptor, sequence (P35869 whole entry): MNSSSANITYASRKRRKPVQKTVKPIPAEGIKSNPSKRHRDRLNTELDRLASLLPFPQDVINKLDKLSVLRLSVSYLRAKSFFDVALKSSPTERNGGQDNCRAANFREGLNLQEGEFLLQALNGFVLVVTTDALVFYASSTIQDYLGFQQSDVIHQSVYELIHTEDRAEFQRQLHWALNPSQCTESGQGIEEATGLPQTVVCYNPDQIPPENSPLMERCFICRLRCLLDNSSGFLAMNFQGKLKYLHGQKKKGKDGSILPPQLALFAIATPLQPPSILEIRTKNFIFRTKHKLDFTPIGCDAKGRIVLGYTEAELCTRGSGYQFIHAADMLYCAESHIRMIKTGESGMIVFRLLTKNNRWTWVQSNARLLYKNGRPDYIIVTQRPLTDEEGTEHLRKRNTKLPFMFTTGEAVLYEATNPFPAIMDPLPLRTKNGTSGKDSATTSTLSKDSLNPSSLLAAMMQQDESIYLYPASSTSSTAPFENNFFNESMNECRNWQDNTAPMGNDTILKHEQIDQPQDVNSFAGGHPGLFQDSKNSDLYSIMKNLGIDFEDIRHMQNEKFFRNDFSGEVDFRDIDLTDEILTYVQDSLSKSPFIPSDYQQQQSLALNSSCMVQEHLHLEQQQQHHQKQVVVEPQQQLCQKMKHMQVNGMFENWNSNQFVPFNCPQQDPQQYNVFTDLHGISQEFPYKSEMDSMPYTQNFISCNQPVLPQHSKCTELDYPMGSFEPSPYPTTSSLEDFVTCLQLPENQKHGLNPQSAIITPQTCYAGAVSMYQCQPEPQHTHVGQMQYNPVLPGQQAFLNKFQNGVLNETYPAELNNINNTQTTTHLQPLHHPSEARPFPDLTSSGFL

[21] = molecular target: Cytochrome P450 2C9 (Homo sapiens, UniProt P11712)
Cytochrome P450 2C9, sequence (P11712 whole entry, the tested form may be a part): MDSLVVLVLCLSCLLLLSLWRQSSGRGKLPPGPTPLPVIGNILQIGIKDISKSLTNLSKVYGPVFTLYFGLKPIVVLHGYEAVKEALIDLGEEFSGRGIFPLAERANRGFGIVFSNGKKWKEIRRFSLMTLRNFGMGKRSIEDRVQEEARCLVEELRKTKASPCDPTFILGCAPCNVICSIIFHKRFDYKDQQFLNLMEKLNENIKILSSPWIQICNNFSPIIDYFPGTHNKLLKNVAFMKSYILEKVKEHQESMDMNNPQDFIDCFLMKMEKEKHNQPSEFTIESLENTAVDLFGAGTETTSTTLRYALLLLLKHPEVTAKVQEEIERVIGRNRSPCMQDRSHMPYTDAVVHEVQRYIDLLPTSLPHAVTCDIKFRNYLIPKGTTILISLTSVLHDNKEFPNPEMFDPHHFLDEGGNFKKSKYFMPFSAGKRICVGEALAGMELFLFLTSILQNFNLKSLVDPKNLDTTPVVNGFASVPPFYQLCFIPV

[22] = molecular target: T2, RNA-binding protein pos-1 (Caenorhabditis elegans, UniProt G5EF15); assay: disruptors of C. elegans POS-1 RNA interaction – biochemical, fluorescence polarization, dose response (AID 1964);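 note: purified POS-1 fused to maltose binding protein made in E. coli; potency of compounds blocking POS-1 binding to fluorescent RNA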
T2 sequence (G5EF15 whole entry): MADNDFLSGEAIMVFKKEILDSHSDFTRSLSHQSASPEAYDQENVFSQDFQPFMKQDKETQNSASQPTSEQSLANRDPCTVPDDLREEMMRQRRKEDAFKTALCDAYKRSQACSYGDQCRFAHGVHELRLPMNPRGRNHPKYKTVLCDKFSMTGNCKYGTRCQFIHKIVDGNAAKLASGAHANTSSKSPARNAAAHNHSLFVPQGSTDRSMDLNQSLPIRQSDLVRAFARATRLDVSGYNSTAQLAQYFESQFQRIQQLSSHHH

[23] = molecular target: T3, Zinc finger protein mex-5 (Caenorhabditis elegans, UniProt Q9XUB2); assay: potency of MEX-5 RNA-binding blockers – biochemical, C. elegans, fluorescence polarization, dose response (AID 1960)
T3 sequence (Q9XUB2 whole entry): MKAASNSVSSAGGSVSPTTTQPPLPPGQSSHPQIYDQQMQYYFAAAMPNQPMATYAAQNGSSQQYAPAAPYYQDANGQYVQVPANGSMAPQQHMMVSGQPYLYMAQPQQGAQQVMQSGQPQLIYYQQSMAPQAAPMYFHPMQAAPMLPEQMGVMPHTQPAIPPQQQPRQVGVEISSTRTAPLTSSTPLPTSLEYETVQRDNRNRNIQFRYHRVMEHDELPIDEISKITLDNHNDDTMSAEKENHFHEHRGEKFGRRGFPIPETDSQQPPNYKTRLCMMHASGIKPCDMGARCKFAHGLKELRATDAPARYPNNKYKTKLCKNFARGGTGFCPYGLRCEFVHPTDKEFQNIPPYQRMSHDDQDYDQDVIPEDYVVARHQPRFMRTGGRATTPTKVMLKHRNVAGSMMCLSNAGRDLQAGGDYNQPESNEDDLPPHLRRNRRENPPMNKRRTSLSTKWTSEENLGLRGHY

[24] = molecular target: Heat shock protein HSP 90-alpha (Homo sapiens, UniProt P07900); type: functional, organism-based
[25] = molecular target: T4, Long-chain-fatty-acid--AMP ligase FadD28 (Mycobacterium tuberculosis, UniProt P9WQ59); assay: Fluorescence polarization aasay to screen for inhibitors that compete for the binding of FadD28 to a bisubstrate Measured in Biochemical System Using Plate Reader - 2147-01_Inhibitor_Dose_CherryPick_Activity.; type: functional, Mycobacterium tuberculosis H37Rv
T4 sequence (P9WQ59 whole entry): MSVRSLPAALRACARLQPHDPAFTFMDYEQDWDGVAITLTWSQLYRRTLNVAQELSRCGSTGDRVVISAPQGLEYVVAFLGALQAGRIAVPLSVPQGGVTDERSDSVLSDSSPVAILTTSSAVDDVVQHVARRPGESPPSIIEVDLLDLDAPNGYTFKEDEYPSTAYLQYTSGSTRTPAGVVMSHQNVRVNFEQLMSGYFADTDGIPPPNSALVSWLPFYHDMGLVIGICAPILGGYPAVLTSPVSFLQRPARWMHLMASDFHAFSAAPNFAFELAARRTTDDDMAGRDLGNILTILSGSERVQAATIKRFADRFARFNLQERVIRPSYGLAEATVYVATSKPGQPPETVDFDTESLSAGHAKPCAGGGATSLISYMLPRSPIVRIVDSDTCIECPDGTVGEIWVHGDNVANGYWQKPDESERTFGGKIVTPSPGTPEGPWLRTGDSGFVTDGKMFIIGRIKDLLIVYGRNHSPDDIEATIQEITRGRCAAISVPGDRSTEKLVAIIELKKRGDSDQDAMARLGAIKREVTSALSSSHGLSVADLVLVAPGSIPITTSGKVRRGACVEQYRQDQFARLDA

[26] = molecular target: T5, Estrogen receptor (Homo sapiens, UniProt P03372); assay: ERα coactivator recruitment enhancers – biochemical, TR-FRET, ERα LBD, dose response (AID 737)
T5 sequence (P03372 whole entry): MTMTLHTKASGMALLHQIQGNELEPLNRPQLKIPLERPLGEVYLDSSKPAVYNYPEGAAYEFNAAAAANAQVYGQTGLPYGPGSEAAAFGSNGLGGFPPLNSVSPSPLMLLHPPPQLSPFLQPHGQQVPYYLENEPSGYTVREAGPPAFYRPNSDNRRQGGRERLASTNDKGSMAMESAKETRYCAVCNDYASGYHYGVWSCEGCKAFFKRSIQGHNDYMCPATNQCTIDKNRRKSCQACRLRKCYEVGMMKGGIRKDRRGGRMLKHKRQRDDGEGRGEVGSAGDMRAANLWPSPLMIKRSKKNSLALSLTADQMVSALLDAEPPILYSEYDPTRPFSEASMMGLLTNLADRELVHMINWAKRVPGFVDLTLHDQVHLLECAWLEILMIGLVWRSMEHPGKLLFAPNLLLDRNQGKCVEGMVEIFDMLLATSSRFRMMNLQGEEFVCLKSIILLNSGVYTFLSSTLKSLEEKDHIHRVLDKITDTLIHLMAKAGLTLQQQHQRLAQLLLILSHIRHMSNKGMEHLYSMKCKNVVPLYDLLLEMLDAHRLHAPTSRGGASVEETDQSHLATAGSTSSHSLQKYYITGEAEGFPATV

14-3-3 protein gamma, sequence (P61981 whole entry): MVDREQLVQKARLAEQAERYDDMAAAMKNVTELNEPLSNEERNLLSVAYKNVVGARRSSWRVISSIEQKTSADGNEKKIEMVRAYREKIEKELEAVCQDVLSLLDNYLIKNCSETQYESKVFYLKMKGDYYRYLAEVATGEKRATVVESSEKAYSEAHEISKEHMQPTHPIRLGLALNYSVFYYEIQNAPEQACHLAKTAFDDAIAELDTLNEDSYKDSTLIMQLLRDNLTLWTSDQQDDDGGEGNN

COc1ccccc1-n1nnnc1SCc1cc2c(cc1Br)OCO2
IC50 [1]: > 50 µM (not active) | IC50 [2]: 1.36 µM (not active)

C/C(=N\O)C(=O)NCc1ccccn1
IC50 [1]: > 50 µM (not active)

O=C(CCc1ccc(O)cc1)c1c(O)cc(O)cc1O[C@@H]1O[C@@H](CO)[C@@H](O)[C@@H](O)[C@H]1O
AC50 [3]: 6.31 µM (inconclusive)

CC(=O)Nc1ccc(/C=N/Nc2c(Cl)cc(Cl)cc2Cl)cc1
IC50 [4]: > 17 µM (not active)

Clc1ccc(C[n+]2c(-c3ccccc3)cc(-c3ccccc3)cc2-c2ccccc2)cc1.[O-][Cl+3]([O-])([O-])[O-]
EC50 [5]: < 0.1 µM (active) | EC50 [6]: > 60 µM (not active) | AC50 [7]: 2.05 µM (active) | EC50 [8]: > 89.2 µM (inactive) | EC50 [9]: 0.173 µM (active)

Cc1ccc2nc(NC(=O)c3cccc(-c4cc5ccccc5oc4=O)c3)sc2c1
CC50 [10]: > 100 µM (active) | EC50 [5]: 1.09 µM (active) | EC50 [6]: > 60 µM (not active) | AC50 [11]: 1.71 µM (active)

COc1cc(NC(=O)c2noc3c2CCC3)c(OC)cc1Cl
IC50 [12]: 11.1 µM (not active) | IC50 [13]: > 109 µM (not active)

NC(=O)Cn1c(=O)n(Cc2ccco2)c(=O)c2c3c(sc21)CCCCC3
EC50 [14]: > 120 µM (not active) | EC50 [15]: > 120 µM (not active) | EC50 [16]: > 120 µM (not active) | IC50 [17]: 33 µM (active) | IC50 [18]: < 0.023 µM (not active) | AC50 [19]: 25.1 µM (inconclusive)

COc1ccccc1-c1nnc(NC(C)=O)s1
EC50 [20]: 11 µM (not active) | AC50 [21]: inconclusive

COc1cc(/C=N/NC(=O)c2cccc(NC(=O)c3ccccc3)c2)ccc1O
EC50 [20]: 5.62 µM (active)

COc1ccc(-c2nc(-c3ccc(OC)c(OC)c3)[nH]c2-c2ccc(OC)cc2)cc1
IC50 [4]: > 17 µM (not active)

COc1ccc(OC2C=CC(C#Cc3ccc(Br)cc3)OC2CO)c(C(C)(C)C)c1 (centres undefined)
AC50 [3]: 3.16 µM (inconclusive)

COc1ccc(C2=CC3=C(Br)C(=O)C(C)(OC(=O)c4cccs4)C(=O)C3=CO2)cc1 (centres undefined)
EC50 [22]: 32.8 µM (active) | EC50 [23]: 29.1 µM (active) | IC50 [12]: 16.8 µM (not active) | IC50 [13]: > 109 µM (not active) | AC50 [24]: 2.35 µM (active) | AC50 [25]: > 100 µM (inactive)

CC1Cc2ccccc2N1C(=O)CSc1nnc(-c2ccc(S(=O)(=O)N3CCCC3)cc2)o1 (centres undefined)
EC50 [26]: 7.79 µM (active)
